US12065456B2, “Boron-containing pharmacophore” (MASSACHUSETTS INSTITUTE OF TECHNOLOGY, priority 2019, dated 2024)
Like-named read-outs stand apart in the source and are kept apart here.

Tests used:
[1] = molecular target: T1, pig liver esterase (PLE) (Sus scrofa, UniProt Q29550); assay: Inhibition of pig liver esterase, 4-nitrophenyl acetate substrate; format: biochemical; details: pH 7.5, substrate 1.0 mM
T1 sequence (Q29550 19-566): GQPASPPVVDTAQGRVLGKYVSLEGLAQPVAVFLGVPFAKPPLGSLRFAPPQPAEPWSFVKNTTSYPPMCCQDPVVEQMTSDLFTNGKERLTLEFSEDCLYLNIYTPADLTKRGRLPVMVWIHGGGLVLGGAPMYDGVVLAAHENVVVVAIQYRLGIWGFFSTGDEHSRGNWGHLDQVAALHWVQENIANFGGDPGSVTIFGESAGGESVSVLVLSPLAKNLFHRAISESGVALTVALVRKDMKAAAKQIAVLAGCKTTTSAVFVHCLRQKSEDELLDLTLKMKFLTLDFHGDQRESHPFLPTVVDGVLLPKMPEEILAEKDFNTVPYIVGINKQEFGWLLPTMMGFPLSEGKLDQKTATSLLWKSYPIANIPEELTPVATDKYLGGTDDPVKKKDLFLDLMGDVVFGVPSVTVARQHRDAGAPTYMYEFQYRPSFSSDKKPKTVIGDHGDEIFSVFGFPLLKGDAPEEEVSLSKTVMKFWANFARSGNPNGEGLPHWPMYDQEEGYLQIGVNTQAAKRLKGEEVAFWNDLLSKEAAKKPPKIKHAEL
Procedure: (§1) 2-CPBA was tested as an inhibitor of pig liver esterase (PLE). This test used 4-nitrophenyl acetate (PNPA) as a substrate. In addition, 2-CPBA was tested as an inhibitor of calf intestinal phosphatase (CIP). This test used 4-nitrophenyl phosphate. Substrates and PLE (15 units/mg) were obtained from Sigma-Aldrich (St. Louis, MO) as dry powders. CIP was obtained from Promega (Fitchburg, WI) as a solution (1 unit/μL). The hydrolysis of the two chromogenic substrates was monitored with a Tecan M1000 plate reader by measuring the absorbance of the 4-nitrophenol product at a wavelength of 405 nm. Assays were performed in a buffer of 20 mM Tris-HCl buffer, pH 7.5, in a clear, flat bottomed 96-well plate in 200-μL volumes. Solutions for CIP assays contained enzyme (0.003 units/μL) and substrate (1.0 mM). Solutions for PLE assays contained enzyme (0.01 units/mL) and substrate (1.0 mM). Both enzymes were assayed for inhibition by adding 2-CPBA (to a concentration of 0.78-100 mM) from a 250 mM stock solution that had its pH adjusted to that of the assay buffer. Initial velocities were measured by calculating ΔA405 nm over time. Velocities were fitted to the 4-parameter logistic equation with Prism software from GraphPad (San Diego, CA). No enzyme and uninhibited velocities were used to constrain the top and bottom parameters. Values of Ki were 80 mM for CIP and 10 mM for PLE.

[2] = Affinity for saccharides, overall comparison; format: binding
From the text: (§2) PBA and 2-HMPBA are employed often for their ability to form esters with saccharides. As the affinity of boronic acids for saccharides is generally greatest near their pKa value, the low pKa1 of 2-CPBA portends a low affinity. The results of ^1H-NMR titration experiments with D-fructose, D-glucose, and N-acetylneuraminic acid (Neu5Ac) are consistent with this expectation (Table 3).

[3] = molecular target: T2, ribonuclease A (RNase A) (Bos taurus, UniProt P61823); assay: Inhibition of catalysis by ribonuclease A; format: biochemical; details: pH 6.0, substrate 6-FAM-(dA)rU(dA)2-6-TAMRA
T2 sequence (P61823 27-150): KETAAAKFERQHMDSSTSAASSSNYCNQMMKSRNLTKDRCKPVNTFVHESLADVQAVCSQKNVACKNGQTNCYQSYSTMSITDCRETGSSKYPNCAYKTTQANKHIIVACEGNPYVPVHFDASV
Procedure: The catalytic activity of ribonuclease A (RNase A) was assayed using 6-FAM-(dA)rU(dA)2-6-TAMRA as a substrate (Kelemen, B. R.; et al. Nucleic Acids Res. 1999, 27, 3696-3701). Assays were performed in 50 mM MES-NaOH buffer, pH 6.0, containing NaCl (100 mM) and RNase A (1 pM) in 200-μL solutions in a black, flat-bottomed 96-well plate and with a Tecan M1000 plate reader. An aqueous solution of 2-CPBA was prepared by dilution from a 500 mM stock that had its pH adjusted to that of the assay buffer. Initial velocities were measured from <5% turnover. Velocities were fitted to the 4-parameter logistic equation using Prism software from GraphPad. Uninhibited velocities were used to constrain the top parameter.

[4] = Affinity for saccharides, 1H-NMR titration; format: binding
From the text: as §2

[5] = molecular target: T3, calf intestinal phosphatase (CIP) (Bos taurus, UniProt P19111); assay: Inhibition of calf intestinal phosphatase, 4-nitrophenyl phosphate substrate; format: biochemical; details: pH 7.5, substrate 1.0 mM
T3 construct: purchased Promega (Fitchburg, WI)
T3 sequence (P19111 20-506): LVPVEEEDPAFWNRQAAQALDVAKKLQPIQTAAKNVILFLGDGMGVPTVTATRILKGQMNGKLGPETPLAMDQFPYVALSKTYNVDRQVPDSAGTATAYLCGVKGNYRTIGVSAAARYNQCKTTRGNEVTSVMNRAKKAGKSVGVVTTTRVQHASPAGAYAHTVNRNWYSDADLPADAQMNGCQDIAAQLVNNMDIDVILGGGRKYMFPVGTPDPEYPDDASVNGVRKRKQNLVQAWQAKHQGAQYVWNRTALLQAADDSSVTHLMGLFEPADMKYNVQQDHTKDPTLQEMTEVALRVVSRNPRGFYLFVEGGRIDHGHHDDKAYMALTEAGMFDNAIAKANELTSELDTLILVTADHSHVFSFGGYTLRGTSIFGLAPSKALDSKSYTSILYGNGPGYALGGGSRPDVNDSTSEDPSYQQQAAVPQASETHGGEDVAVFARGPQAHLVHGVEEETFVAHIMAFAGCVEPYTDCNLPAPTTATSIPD
Procedure: as §1

[6] = Oxidation of boronic acids by hydrogen peroxide, continuous UV-absorbance assay; format: physicochemical; details: for kmonoanion (rel) / kmonoanion: experimental; for kmonoanion (rel): relative to PBA; for kmonoanion: second-order rate constant for oxidation of monoanionic tetrahedral state; for kobs: second-order rate constant of oxidation by hydrogen peroxide, physiological pH
From the text: Hydrogen peroxide is known to be the major reactive oxygen species in humans. The oxidation of phenylboronic acids by aqueous hydrogen peroxide yields a phenol and boric acid. […] The oxidation rates were first-order with respect to hydrogen peroxide and each boronic acid. The ensuing second-order rate constants varied with pH and were half-maximal for PBA and 2-HMPBA when pH=pKa. Oxidation rates increase in a pH-dependent manner after and before a pH-independent regime (FIG. 2). This observation is consistent with the existence of two pH-independent rate constants, k1 and k2. Whereas the oxidation rates of PBA and 2-HMPBA at physiological pH are similar to those for biological thiols, the comparative stability of CPBA to oxidation is unexpected (Table 1).
For PBA, 2-HMPBA, and 2-CPBA, the transition from a neutral trigonal state to a monoanionic tetrahedral state occurs when the pH surpasses the pKa (FIG. 3). […] The oxaborolone is differentiated by its existence as a monoanionic tetrahedral species above pH 1. The second-order rate constants for the oxidation for the monoanionic tetrahedral states of PBA, 2-HMPBA, 2-CPBA, and 2-CMPBA ((2-carboxymethyl)-phenylboronic acid) are listed in Table 2.

[7] = molecular target: T4, Transthyretin (TTR) (Homo sapiens, UniProt P02766); assay: Inhibition of transthyretin fibril formation, light-scattering at 400 nm; format: biochemical; details: pH 4.4, 96-h incubation at 37° C.
T4 construct: made in house
Procedure: TTR was expressed and purified as previously reported (Smith, T. P., et al, J. Med. Chem., 2017, 60, 7820-7834). Inhibition of fibril formation was assayed as previously reported (Smith, et al.). Briefly, TTR (7.2 μM) was incubated with varying ratios of kinetic stabilizers (BOL or tafamidis) in 10 mM sodium phosphate buffer, pH 7.6, containing potassium chloride (100 mM) for 30 min at 37° C. Solutions were 2-fold diluted with 100 mM sodium acetate buffer, pH 4.4, containing potassium chloride (100 mM). Quadruplicate samples were plated in a clear 96-well plate. Fibril formation was assessed by measuring light-scattering at 400 nm immediately following acidification and after a 96-h incubation at 37° C. Data were analyzed with equation 1 below by comparing the change in light-scattering over the incubation with a control containing the protein and no inhibitor. The standard deviation of measurements was propagated through calculation in equation 1.

[8] = oxidation of biological thiols, physiological pH; marked with footnote a; cited from earlier work

SMILES: O=C(O)c1ccccc1B(O)O [Compound 2-CPBA, 2-carboxyphenylboronic acid]
- Ki [1]: 10 mM
- loss in affinity for saccharides versus 2-HMPBA ([2]; versus 2-HMPBA): about 13 fold
- loss in affinity for saccharides versus PBA ([2]; versus PBA): about 4 fold
- IC50 [3]: 27 mM
- D-fructose, Ka [4]: 23 ± 2 M⁻¹
- D-glucose, Ka [4]: 1.7 ± 0.1 M⁻¹
- Neu5Ac, Ka [4]: 6.0 ± 0.5 M⁻¹
- Ki [5]: 80 mM
- kmonoanion (rel) [6]: 0.0000035
- kmonoanion [6]: 0.00016 M⁻¹ s⁻¹
- kobs [6]: 0.00015 M⁻¹ s⁻¹

SMILES: O=C(O)Cc1ccccc1B(O)O [Compound 2-CMPBA, (2-carboxymethyl)-phenylboronic acid]
- kmonoanion (rel) [6]: 0.00088
- kmonoanion [6]: 0.041 M⁻¹ s⁻¹
- kobs [6]: 0.041 M⁻¹ s⁻¹

SMILES: OCc1ccccc1B(O)O [Compound 2-HMPBA, (2-hydroxymethyl)phenylboronic acid]
- D-fructose, Ka [4]: 336 ± 43 M⁻¹
- D-glucose, Ka [4]: 28 ± 4 M⁻¹
- Neu5Ac, Ka [4]: 43 ± 5 M⁻¹
- kmonoanion (rel) [6]: 0.10
- kmonoanion [6]: 4.8 M⁻¹ s⁻¹
- kobs [6]: 2.4 M⁻¹ s⁻¹

SMILES: O=C(O)c1ccc2nc(-c3cc(Cl)cc(Cl)c3)oc2c1 [tafamidis]
- % Fibril formation ([7]; TTR:Compound ratio 1:1): 29 ± 5%
- % Fibril formation ([7]; TTR:Compound ratio 1:2): 1 ± 5%

SMILES: CC(=O)N[C@@H](CS)C(=O)O [N-Acetylcysteine]
- kobs [8]: 0.16 M⁻¹ s⁻¹

SMILES: N[C@@H](CS)C(=O)O [Cysteine]
- kobs [8]: 2.9 M⁻¹ s⁻¹

SMILES: OB(O)c1ccccc1 [PBA, phenylboronic acid]
- D-fructose, Ka [4]: 128 ± 20 M⁻¹
- D-glucose, Ka [4]: 5 ± 1 M⁻¹
- Neu5Ac, Ka [4]: 13 ± 1 M⁻¹
- kmonoanion (rel) [6]: 1
- kmonoanion [6]: 46 M⁻¹ s⁻¹
- kobs [6]: 2.4 M⁻¹ s⁻¹

SMILES: N[C@@H](CCC(=O)N[C@@H](CS)C(=O)NCC(=O)O)C(=O)O [Glutathione]
- kobs [8]: 0.89 M⁻¹ s⁻¹
